Test results from patent US8192962B2, “Processes for detecting toxic substances” (Daikin Industries, Ltd., priority 2001, dated 2012).

Test system: Mitochondria-located protein genes
Experiment: DNA chip mRNA expression in yeast, mitochondria-located protein genes (Table 2)
Assay type: cell-based, Saccharomyces cerevisiae S288C
Conditions: cells incubated two hours with the chemical substance
How it was run: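 Expression change after 2 h toxicant exposure (growth-inhibiting, sub-lethal) of log-phase S. cerevisiae S288C at 25° C. Oligo-dT-purified mRNA was labeled with Cy3-dUTP or Cy5-dUTP and hybridized >12 h at 65° C. to a genome-wide chip; ratio of scanned fluorescence to control.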

N#Cc1c(Cl)c(Cl)c(Cl)c(C#N)c1Cl [(9), 2,4,5,6-tetrachloro-1,3-benzenedicarbonitrile]
The level of expressed mRNA in the presence of chemical substance/The level of expressed mRNA in the absence of chemical substance (yeast gene YAL039C): 1.6
The level of expressed mRNA in the presence of chemical substance/The level of expressed mRNA in the absence of chemical substance (yeast gene YBL022C): 2.8
The level of expressed mRNA in the presence of chemical substance/The level of expressed mRNA in the absence of chemical substance (yeast gene YBL030C): 0.4
The level of expressed mRNA in the presence of chemical substance/The level of expressed mRNA in the absence of chemical substance (yeast gene YBL038W): 1.4
The level of expressed mRNA in the presence of chemical substance/The level of expressed mRNA in the absence of chemical substance (yeast gene YBL099W): 0.9
The level of expressed mRNA in the presence of chemical substance/The level of expressed mRNA in the absence of chemical substance (yeast gene YBR003W): 1.0
The level of expressed mRNA in the presence of chemical substance/The level of expressed mRNA in the absence of chemical substance (yeast gene YBR044C): 0.8
The level of expressed mRNA in the presence of chemical substance/The level of expressed mRNA in the absence of chemical substance (yeast gene YBR091C): 0.7
The level of expressed mRNA in the presence of chemical substance/The level of expressed mRNA in the absence of chemical substance (yeast gene YBR122C): 1.1
The level of expressed mRNA in the presence of chemical substance/The level of expressed mRNA in the absence of chemical substance (yeast gene YBR185C): 0.9
The level of expressed mRNA in the presence of chemical substance/The level of expressed mRNA in the absence of chemical substance (yeast gene YBR221C): 1.0
The level of expressed mRNA in the presence of chemical substance/The level of expressed mRNA in the absence of chemical substance (yeast gene YBR251W): 0.5
The level of expressed mRNA in the presence of chemical substance/The level of expressed mRNA in the absence of chemical substance (yeast gene YBR282W): 1.0
The level of expressed mRNA in the presence of chemical substance/The level of expressed mRNA in the absence of chemical substance (yeast gene YCL057W): 4.2
The level of expressed mRNA in the presence of chemical substance/The level of expressed mRNA in the absence of chemical substance (yeast gene YCR046C): 1.9
The level of expressed mRNA in the presence of chemical substance/The level of expressed mRNA in the absence of chemical substance (yeast gene YCR083W): 1.8
The level of expressed mRNA in the presence of chemical substance/The level of expressed mRNA in the absence of chemical substance (yeast gene YDL067C): 0.9
The level of expressed mRNA in the presence of chemical substance/The level of expressed mRNA in the absence of chemical substance (yeast gene YDL181W): 0.7
The level of expressed mRNA in the presence of chemical substance/The level of expressed mRNA in the absence of chemical substance (yeast gene YDL198C): 1.9
The level of expressed mRNA in the presence of chemical substance/The level of expressed mRNA in the absence of chemical substance (yeast gene YDR079W): 0.9
The level of expressed mRNA in the presence of chemical substance/The level of expressed mRNA in the absence of chemical substance (yeast gene YDR178W): 0.9
The level of expressed mRNA in the presence of chemical substance/The level of expressed mRNA in the absence of chemical substance (yeast gene YDR231C): 1.5
The level of expressed mRNA in the presence of chemical substance/The level of expressed mRNA in the absence of chemical substance (yeast gene YDR258C): 4.9
The level of expressed mRNA in the presence of chemical substance/The level of expressed mRNA in the absence of chemical substance (yeast gene YDR298C): 1.0
The level of expressed mRNA in the presence of chemical substance/The level of expressed mRNA in the absence of chemical substance (yeast gene YDR347W): 0.8
The level of expressed mRNA in the presence of chemical substance/The level of expressed mRNA in the absence of chemical substance (yeast gene YDR377W): 1.0
The level of expressed mRNA in the presence of chemical substance/The level of expressed mRNA in the absence of chemical substance (yeast gene YDR529C): 0.5
The level of expressed mRNA in the presence of chemical substance/The level of expressed mRNA in the absence of chemical substance (yeast gene YEL024W): 0.7
The level of expressed mRNA in the presence of chemical substance/The level of expressed mRNA in the absence of chemical substance (yeast gene YEL039C): 1.2
The level of expressed mRNA in the presence of chemical substance/The level of expressed mRNA in the absence of chemical substance (yeast gene YER178W): 1.7
The level of expressed mRNA in the presence of chemical substance/The level of expressed mRNA in the absence of chemical substance (yeast gene YFL016C): 6.4
The level of expressed mRNA in the presence of chemical substance/The level of expressed mRNA in the absence of chemical substance (yeast gene YGL018C): 0.5
The level of expressed mRNA in the presence of chemical substance/The level of expressed mRNA in the absence of chemical substance (yeast gene YGL187C): 0.6
The level of expressed mRNA in the presence of chemical substance/The level of expressed mRNA in the absence of chemical substance (yeast gene YGL191W): 1.1
The level of expressed mRNA in the presence of chemical substance/The level of expressed mRNA in the absence of chemical substance (yeast gene YGR008C): 3.1
The level of expressed mRNA in the presence of chemical substance/The level of expressed mRNA in the absence of chemical substance (yeast gene YGR028W): 1.7
The level of expressed mRNA in the presence of chemical substance/The level of expressed mRNA in the absence of chemical substance (yeast gene YGR062C): 1.0
The level of expressed mRNA in the presence of chemical substance/The level of expressed mRNA in the absence of chemical substance (yeast gene YGR076C): 1.2
The level of expressed mRNA in the presence of chemical substance/The level of expressed mRNA in the absence of chemical substance (yeast gene YGR082W): 0.6
The level of expressed mRNA in the presence of chemical substance/The level of expressed mRNA in the absence of chemical substance (yeast gene YGR174C): 1.8
The level of expressed mRNA in the presence of chemical substance/The level of expressed mRNA in the absence of chemical substance (yeast gene YGR244C): 1.4
The level of expressed mRNA in the presence of chemical substance/The level of expressed mRNA in the absence of chemical substance (yeast gene YHR008C): 1.7
The level of expressed mRNA in the presence of chemical substance/The level of expressed mRNA in the absence of chemical substance (yeast gene YIL155C): 2.5
The level of expressed mRNA in the presence of chemical substance/The level of expressed mRNA in the absence of chemical substance (yeast gene YJL096W): 1.0
The level of expressed mRNA in the presence of chemical substance/The level of expressed mRNA in the absence of chemical substance (yeast gene YJL102W): 3.1
The level of expressed mRNA in the presence of chemical substance/The level of expressed mRNA in the absence of chemical substance (yeast gene YJL133W): 0.6
The level of expressed mRNA in the presence of chemical substance/The level of expressed mRNA in the absence of chemical substance (yeast gene YJL166W): 1.3
The level of expressed mRNA in the presence of chemical substance/The level of expressed mRNA in the absence of chemical substance (yeast gene YJL180C): 1.4
The level of expressed mRNA in the presence of chemical substance/The level of expressed mRNA in the absence of chemical substance (yeast gene YJR045C): 3.2
The level of expressed mRNA in the presence of chemical substance/The level of expressed mRNA in the absence of chemical substance (yeast gene YJR077C): 0.4
